# Test system: RA patients
# Assay: Atherogenic index, Study 1 (RA patients, add-on to MTX)
# Assay type: in vivo, human
# Protocol: As used herein, the term ‘atherogenic index’ refers to
# Double-blind, placebo-controlled add on study in subjects with moderately to severely active RA who have an inadequate response to methotrexate (MTX) (oral or parenteral).
# Compound 1 (dosed as a [Compound 1:HCl:3H2O]) is dosed for twelve weeks once daily (q.d.) (50 mg, 100 mg or 200 mg) or twice daily (b.i.d.) (25 mg, 50 mg or 100 mg); or placebo.
# At Week 12, the subjects on placebo who have not achieved 20% improvement in swollen joint count (SJC66) and tender joint count (TJC68) are re-randomized automatically to receive Compound 1 (dosed as a [Compound 1:HCl:3H2O]) either at 100 mg q.d. or 50 mg b.i.d. doses in a blinded fashion; subjects on 50 mg q.d. who have not achieved 20% improvement in SJC66 and TJC68 will be assigned to 100 mg q.d. and subjects on 25 mg b.i.d. that have not achieved a 20% improvement in SJC66 and TJC68 will be assigned to 50 mg b.i.d. Subjects who switch treatment at week 12 are handled as if they discontinued at week 12 for the purpose of statistical analysis, whereas subjects in the other groups will maintain their randomized treatment until Week 24.
# The atherogenic index has been identified to be a good predictor of cardiovascular disorders risks and is calculated as follows: […]
# [1] = 100 mg b.i.d. continued over 24 weeks, week 1
# [2] = 100 mg b.i.d. continued over 24 weeks, week 2
# [3] = 100 mg b.i.d. continued over 24 weeks, week 4
# [4] = 100 mg b.i.d. continued over 24 weeks, week 8
# [5] = 100 mg b.i.d. continued over 24 weeks, week 12
# [6] = 100 mg b.i.d. continued over 24 weeks, week 16
# [7] = 100 mg b.i.d. continued over 24 weeks, week 20
# [8] = 100 mg b.i.d. continued over 24 weeks, week 24
# [9] = 100 mg q.d. continued over 24 weeks, week 1
# [10] = 100 mg q.d. continued over 24 weeks, week 2
# [11] = 100 mg q.d. continued over 24 weeks, week 4
# [12] = 100 mg q.d. continued over 24 weeks, week 8
# [13] = 100 mg q.d. continued over 24 weeks, week 12
# [14] = 100 mg q.d. continued over 24 weeks, week 16
# [15] = 100 mg q.d. continued over 24 weeks, week 20
# [16] = 100 mg q.d. continued over 24 weeks, week 24
smiles,measurement,setting,value
"O=C(Nc1nc2cccc(-c3ccc(CN4CCS(=O)(=O)CC4)cc3)n2n1)C1CC1 [Compound 1, cyclopropanecarboxylic acid {5-[4-(1,1-dioxo-thiomorpholin-4-ylmethyl)-phenyl]-[1,2,4]triazolo[1,5-a]pyridin-2yl}-amide]",Atherogenic index Median CFB - 12 weeks results,"50 mg q.d., week 1",-0.10 mmol/L
same,Atherogenic index Mean CFB,"50 mg q.d., week 2",-0.13 mmol/L
same,Atherogenic index Mean percentage CFB - 12 weeks results,"50 mg q.d., week 2",−3%
same,Atherogenic index Median CFB - 12 weeks results,"50 mg q.d., week 2",-0.20 mmol/L
same,Atherogenic index Mean CFB,"50 mg q.d., week 4",-0.11 mmol/L
same,Atherogenic index Mean percentage CFB - 12 weeks results,"50 mg q.d., week 4",−3%
same,Atherogenic index Median CFB - 12 weeks results,"50 mg q.d., week 4",-0.10 mmol/L
same,Atherogenic index Mean CFB,"50 mg q.d., week 8",-0.03 mmol/L
same,Atherogenic index Mean percentage CFB - 12 weeks results,"50 mg q.d., week 8",0%
same,Atherogenic index Median CFB - 12 weeks results,"50 mg q.d., week 8",-0.10 mmol/L
same,Atherogenic index Mean CFB,"50 mg q.d., week 12",0.01 mmol/L
same,Atherogenic index Mean percentage CFB - 12 weeks results,"50 mg q.d., week 12",2%
same,Atherogenic index Median CFB - 12 weeks results,"50 mg q.d., week 12",0.00 mmol/L
same,Atherogenic index Mean CFB - 24 weeks results,[1],-0.05 mmol/L
same,Atherogenic index Mean percentage CFB - 24 weeks results,[1],−0.38%
same,Atherogenic index Median CFB - 24 weeks results,[1],0.00 mmol/L
same,Atherogenic index Mean CFB - 24 weeks results,[2],-0.19 mmol/L
same,Atherogenic index Mean percentage CFB - 24 weeks results,[2],−4.84%
same,Atherogenic index Median CFB - 24 weeks results,[2],-0.20 mmol/L
same,Atherogenic index Mean CFB - 24 weeks results,[3],-0.30 mmol/L
same,Atherogenic index Mean percentage CFB - 24 weeks results,[3],−6.94%
same,Atherogenic index Median CFB - 24 weeks results,[3],-0.30 mmol/L
same,Atherogenic index Mean CFB - 24 weeks results,[4],-0.18 mmol/L
same,Atherogenic index Mean percentage CFB - 24 weeks results,[4],−3.54%
same,Atherogenic index Median CFB - 24 weeks results,[4],-0.20 mmol/L
same,Atherogenic index Mean CFB - 24 weeks results,[5],-0.24 mmol/L
same,Atherogenic index Mean percentage CFB - 24 weeks results,[5],−4.76%
same,Atherogenic index Median CFB - 24 weeks results,[5],-0.20 mmol/L
same,Atherogenic index Mean CFB - 24 weeks results,[6],-0.25 mmol/L
same,Atherogenic index Mean percentage CFB - 24 weeks results,[6],−5.23%
same,Atherogenic index Median CFB - 24 weeks results,[6],-0.30 mmol/L
same,Atherogenic index Mean CFB - 24 weeks results,[7],-0.24 mmol/L
same,Atherogenic index Mean percentage CFB - 24 weeks results,[7],−5.40%
same,Atherogenic index Median CFB - 24 weeks results,[7],-0.20 mmol/L
same,Atherogenic index Mean CFB - 24 weeks results,[8],-0.18 mmol/L
same,Atherogenic index Mean percentage CFB - 24 weeks results,[8],−3.70%
same,Atherogenic index Median CFB - 24 weeks results,[8],-0.20 mmol/L
same,Atherogenic index Mean CFB - 24 weeks results,[9],-0.06 mmol/L
same,Atherogenic index Mean percentage CFB - 24 weeks results,[9],−0.13%
same,Atherogenic index Median CFB - 24 weeks results,[9],-0.10 mmol/L
same,Atherogenic index Mean CFB - 24 weeks results,[10],-0.17 mmol/L
same,Atherogenic index Mean percentage CFB - 24 weeks results,[10],−2.80%
same,Atherogenic index Median CFB - 24 weeks results,[10],-0.10 mmol/L
same,Atherogenic index Mean CFB - 24 weeks results,[11],-0.11 mmol/L
same,Atherogenic index Median CFB - 24 weeks results,[11],-0.10 mmol/L
same,Atherogenic index Mean CFB - 24 weeks results,[12],-0.11 mmol/L
same,Atherogenic index Mean percentage CFB - 24 weeks results,[12],−1.34%
same,Atherogenic index Median CFB - 24 weeks results,[12],-0.10 mmol/L
same,Atherogenic index Mean CFB - 24 weeks results,[13],-0.06 mmol/L
same,Atherogenic index Mean percentage CFB - 24 weeks results,[13],−0.45%
same,Atherogenic index Median CFB - 24 weeks results,[13],-0.10 mmol/L
same,Atherogenic index Mean CFB - 24 weeks results,[14],-0.18 mmol/L
same,Atherogenic index Mean percentage CFB - 24 weeks results,[14],−3.49%
same,Atherogenic index Median CFB - 24 weeks results,[14],-0.20 mmol/L
same,Atherogenic index Mean CFB - 24 weeks results,[15],-0.27 mmol/L
same,Atherogenic index Mean percentage CFB - 24 weeks results,[15],−5.64%
same,Atherogenic index Median CFB - 24 weeks results,[15],-0.35 mmol/L
same,Atherogenic index Mean CFB - 24 weeks results,[16],-0.17 mmol/L
same,Atherogenic index Mean percentage CFB - 24 weeks results,[16],−3.81%
same,Atherogenic index Median CFB - 24 weeks results,[16],-0.30 mmol/L
same,Atherogenic index Mean CFB,"100 mg q.d., week 1",-0.06 mmol/L
same,Atherogenic index Mean percentage CFB - 12 weeks results,"100 mg q.d., week 1",0%
same,Atherogenic index Median CFB - 12 weeks results,"100 mg q.d., week 1",-0.10 mmol/L
same,Atherogenic index Mean CFB,"100 mg q.d., week 2",-0.17 mmol/L
same,Atherogenic index Mean percentage CFB - 12 weeks results,"100 mg q.d., week 2",−3%
same,Atherogenic index Median CFB - 12 weeks results,"100 mg q.d., week 2",-0.10 mmol/L
same,Atherogenic index Mean CFB,"100 mg q.d., week 4",-0.11 mmol/L
same,Atherogenic index Mean percentage CFB - 12 weeks results,"100 mg q.d., week 4",−2%
same,Atherogenic index Median CFB - 12 weeks results,"100 mg q.d., week 4",-0.10 mmol/L
same,Atherogenic index Mean CFB,"100 mg q.d., week 8",-0.11 mmol/L
same,Atherogenic index Mean percentage CFB - 12 weeks results,"100 mg q.d., week 8",−1%
same,Atherogenic index Median CFB - 12 weeks results,"100 mg q.d., week 8",-0.10 mmol/L
same,Atherogenic index Mean CFB,"100 mg q.d., week 12",-0.06 mmol/L
same,Atherogenic index Mean percentage CFB - 12 weeks results,"100 mg q.d., week 12",0%

# — US10376520B2, “Methods for the treatment of cardiovascular disorders” (Galapagos NV, priority 2015, dated 2019)
